Source: patent US9480701B2, “Low anticoagulant heparins” (priority 2012, dated 2016)
Entries after “also recorded” stand apart in the source; their conditions may differ. Like-named read-outs stand apart in the source and are kept apart here.

Key:
[1] = Rat tail incision bleeding time after i.v. dosing; type: in vivo, Sprague-Dawley rats
Procedure: (§1) Heparin and a LMWH preparation (Fragmin) were also studied for comparison. Basic test procedures were as follows:
The incision was 9 mm long and 1 mm deep and was standardized using a template device. Blood was blotted from the incision until bleeding stopped. The time during which visible bleeding could be observed was measured, for up to 25 minutes. The longer the bleeding time, the more pronounced the anti-coagulant effects of the administered agent.
(§2) The following compounds and doses were tested (each in groups of 8 rats) in juvenile rats of age 14±1 days: • 2. Saline: (Negative Control) • 3.

[2] = test system: merozoite invasion of erythrocytes (P. falciparum, parasite FCR3S1.2); assay: Merozoite invasion inhibition assay; type: cell-based; settings: for Merozoite invasion into fresh red blood cells inhibited: parasite FCR3S1.2, FIG. 8
Procedure: The merozoite invasion inhibition assay was performed with chemically modified heparin and unfractionated heparin Mature pE (trophozoite) synchronized P. falciparum cultures with a parasitemia of 0.4% and a hematocrit of 2% were grown in micro-cultures (100 ul) in the presence of increasing concentrations of chemically modified heparin or unfractionated heparin at 37° C. for 24-30 h. In order to quantify the parasitemia, the samples were stained for 10 s with acridine orange and then analyzed using a FACS instrument from Becton Dickinson. A minimum of 50,000 cells per sample were collected.

[3] = test system: binding of pE to endothelial cells; assay: Cytoadherence blocking and disruption, dynamic incubation; type: cell-based, Plasmodium falciparum; settings: for Binding of pE to endothelial cell inhibited or reversed: parasite FCR3S1.2, FIG. 7
[4] = Coagulation parameters (APTT, PT) in citrate plasma of dosed rats; type: in vivo, Sprague-Dawley rats
Procedure: as §1
Forty minutes after dosing, the rats were sacrificed by full bleeding. Citrate stabilized plasma was prepared from the blood. Plasma was stored in aliquots of 1 or 0.5 mL at −70° C. until analysis of APTT and PT.
as §2

[5] = test system: rosettes of the parasite FCR3S1.2; assay: Rosette disruption in vitro, parasite clone FCR3S1.2 and parasite cultures; type: cell-based, Plasmodium falciparum; settings: for Disruption of rosettes: parasite FCR3S1.2, FIG. 5
factor Xa [6] = settings: for comparison; not said whether anti-factor Xa or anti-factor IIa; cited from earlier work
[7] = test system: P. falciparum-infected erythrocytes sequestered in the lungs
Procedure: Human pE were cultivated in vitro and enriched to a parasitemia above 70%. Prior to injection into the animals, human infected erythrocytes were radioactively labeled with ^99mTc. The rats were anaesthetized and the labeled pE erythrocytes were injected intravenously into the tail vein. […] The distribution of the labeled cells was monitored using a gamma camera for 30 min. The relative amount of labeled cells sequestered in the lungs was calculated by comparing the activity of excised lungs to that of the whole animal.

[8] = test system: rosettes of fresh isolates of children with severe, complicated or mild malaria; settings: 100 and 1000 μg/ml, FIG. 6
factor Xa [9] = test system: factor Xa
factor IIa = factor IIa (Homo sapiens, UniProt P00734)
[10] = rat bleeding model, normalized to unfractionated heparin = 1

**Q.** For Heparin [reference compound], which “Relative Doses (estimated equipotent relative doses), Bleeding time” value ([1]; rat, in vivo) is on record?
**A.** 1

**Q.** And the “Anti-coagulant effect (bleeding time and coagulation parameters)” value ([1]; rat, in vivo, iv)?
**A.** profound effect on all parameters

**Q.** And the “Merozoite invasion into fresh red blood cells inhibited” value [2]?
**A.** dose dependent manner

**Q.** What about the “Binding of pE to endothelial cell inhibited or reversed” value [3] of the same substance?
**A.** dose dependent manner

**Q.** And the “Relative Doses (estimated equipotent relative doses), APTT” value ([4]; rat, in vivo)?
**A.** 1

**Q.** What about the Disruption of rosettes [5] of the same substance?
**A.** dose dependent manner

**Q.** And the “Specific anti-coagulant activity, value corresponding to Table 5” value (factor Xa [6])?
**A.** at least 180 IU/mg

**Q.** What does the source list for sevuparin sodium [DF02]?
**A.** Anti-coagulant effect (bleeding time and coagulation parameters) ([1]; adult rats, i.v.): low anti-coagulant effect; Anti-coagulant effect (bleeding time and coagulation parameters) ([1]; juvenile rats, age 14±1 days): low anti-coagulant effect; Relative Doses (estimated equipotent relative doses), Bleeding time [1, 10]: 30-50; Inhibitory effect on merozoite invasion compared with heparin ([2]; in vitro): equal potency per mg to heparin; also recorded: equal to those of standard heparin; Merozoite invasion into fresh red blood cells inhibited [2]: dose dependent manner; Sequestration of infected erythrocytes in the lungs of rats ([7]; FIG. 9): can be inhibited; Retention of uninfected labeled human erythrocytes, co-injection versus no substance ([7]; rat): No difference was seen; Sensitivity of rosettes of fresh isolates to treatment [8]: sensitive; Cytoadherence disruption: reduction of binding ([3]; pE adhered to the endothelium before incubation, FIG. 7): Up to 80%; Cytoadherence blocking: binding of pE blocked compared with untreated samples ([3]; pE and substance added simultaneously to the endothelium): Up to 80%; Binding of pE to endothelial cell inhibited or reversed [3]: dose dependent manner; Anticoagulant activity anti-factor Xa (factor Xa [9]; drug substance Batch 1): 3.9 IU/mg; Anticoagulant activity anti-factor Xa (factor Xa [9]; drug substance Batch 2): 4.9 IU/mg; Anticoagulant activity anti-factor Xa (factor Xa [9]; drug substance Batch 3): 5.5 IU/mg; Effect on PT ([4]; adult rats, i.v.): too weak to allow for comparative estimates; Effect on PT ([4]; juvenile rats, age 14±1 days): weak; Relative Doses (estimated equipotent relative doses), APTT [4, 10]: 30-40; Anticoagulant FIIa activity (factor IIa; drug substance Batch 1): 4.6 IU/mg; Anticoagulant FIIa activity (factor IIa; drug substance Batch 2): 5.0 IU/mg; Anticoagulant FIIa activity (factor IIa; drug substance Batch 3): 3.8 IU/mg; Disruption of rosettes at highest concentration ([5]; 1000 μg/ml, with some parasites): total or close to total disruption of rosettes; Disruption of rosettes [5]: dose dependent manner
